Data taken from US7271239B2, “D-isomers of antimicrobial peptide” (The Research Foundation of State University of New York, priority 2004, dated 2007).
≈ marks a conversion by molar mass, not a printed value. Where “and” joins values, the source holds several entries; their conditions need not be identical. Equal entries are not always repeated. Where two headings read alike, the source gives them in different places. Where a SMILES comes first, the peptide text is derived from it. Where no end group is shown, it is not given here. [ ]: non-standard residue; d: D form.

How the values were obtained:
trypsin = test: Susceptibility of peptides to trypsin (SDS-PAGE); assay type: in vitro ADME
Procedure: (§1) FIGS. 3A and 3B. Stability of antimicrobial peptides in (3A) Trypsin and (3B) unclarified saliva. Each peptide (3 μg in 5 μl of 0.5 M Tris-HCl buffer pH 7.5) was incubated with: 0.2 μg/ml trypsin containing PIC or no PIC for 0.5 h; or saliva (10 μl) for 1 h. The control of each compound was also incubated with Tris-HCl buffer in parallel. The samples were analyzed by 13% SDS-PAGE. The gel was stained with Coomassie brilliant blue and further analyzed for the peptide degradation by GS-700 Imaging Densitometer. The degradation was estimated by the equation: 1−(density of test band/density of control band)×100%. Ctrol: each peptide alone; T: trypsin plus peptide; T+PIC: trypsin containing PIC plus peptide; S: saliva plus peptide; S+PIC: saliva containing PIC plus peptide.
(§2) Stability of peptides in saliva and susceptibility of septides to trypsin. Three microliters of each peptide (MUC7 12-mer-D, MUC7 12-mer-L, Hsn5 12-mer, or Magainin-II, at 1 μg/μl in 0.2 M Tris-HCl buffer pH 7.5) were incubated with 11 μl of 0.2 μg/ml trypsin or saliva. This gave a final concentration of 0.16 μg/ml for trypsin, and 0.2 μg/μl for peptides (or 127, 127, 128, and 81 μM, for MUC7 12-mer-D, MUC7 12-mer-L, Hsn5 12-mer, or Magainin II, respectively). The reactions, without PIC (water instead or PIC) or with 1×PIC [50% (v/v)] were incubated 0.5 h with trypsin, and 1 hr with saliva (clarified or unclarified) at 37° C. The control of each compound was also incubated with Tris-HCl buffer in parallel. The samples were analyzed by 13% SDS-PAGE. Gels was stained with Coomassie brilliant blue R-250 and further analyzed for the peptide degradation by GS-700 Imaging Densitometer (Bio Red). The degradation was estimated by the equation: 1−(density of test band/density of control band)×100%.

[1] = Stability of peptides in saliva (SDS-PAGE); assay type: in vitro ADME, human
Procedure: as §1, §2

S. mutans = test: microbe, parasite or virus in culture
Text: (§3) The bacteria used in this study included Streptococcus mutans ATCC10449, Streptococcus mutans AU 159, Streptococcus mutans GS-5, Streptococcus mutans GS-5 mutant (^gtf BCD), Streptococcus gordonii Challis, Porphyromonas gingivalis W50, Porphyromonas gingivalis 381, A. actinomycetemcomitans NCTC 9710, Pseudomonas aeruginosa ATCC 17648, and Escherichia coli HB101. One quarter strength (25%) of brain heart infusion broth (BHI, DIFCO Laboratories, Detroit, Mich.) was used for the growth of S. mutans, S. gordonii, A. actinomycetemcomitans, Ps. aeruginosa, and E. coli. For growth of P. gingivalis, tryptic soy broth-yeast extract medium (TSBY, DIFCO Laboratories, Detroit, Mich.) supplemented with cysteine hydrochloride (0.05%), menadione (0.02 μg/ml), hemin (5 μg/ml), and potassium nitrate (0.02%) was used. All bacteria were cultured at 37° C.; Ps. aeruginosa and E. coli were grown aerobically, and the other bacteria, anaerobically. To prepare bacterial cell suspension for antibacterial activity assays, each overnight culture was harvested by centrifuge (3783 g, 10 min), washed once with 10 mM sodium phosphate-buffered saline (PBS, pH 7.2), resuspended in PBS and adjusted to a concentration of 1×10^6 cells/mL.
(§4) MICs of the peptides were determined by broth microdilution method as previously described (5). Briefly, two-fold serial dilutions of each peptide were prepared with 25% BHI medium at a volume of 200 μl per well in 96-well flat-bottom microtiter plates (Costar, Cambridge, Mass.). The final concentration of the peptides ranged from 0.78 to 100 μM, and chlorhexidine (CHX), used as a positive control, from 20 to 0.16 μM (10 to 0.078 μg/mL). The microtiter plate was inoculated with bacterial cell suspension with final concentration of 5×10^6 CFU/mL for P. gingivalis and 5×10^5 CFU/mL for the other bacterial species. After incubation at 37° C. for 48 h, the absorbance was measured at 595 nm by using a microplate reader (Model 3550, Bio-Rad, Japan) to assess the cell growth. […] The MIC value represents the median of at least three independent experiments. The minimal bactericidal concentration (MBC) was determined as follows. Aliquot (100 μl) of cell suspension was taken from two wells above MIC, centrifuged, and washed three times with PBS. Then each cell suspension was plated on TSBY agar plate, and bacterial cells were enumerated after incubation at 37° C. for 48 h. The MBC was defined as the lowest concentration of the peptide at which more than 99.9% of cells were killed compared to non-treated control.

S. gordonii Challis = test: microbe, parasite or virus in culture; assay type: cell-based, Streptococcus gordonii; conditions: for MBC / MIC: Streptococcus gordonii
Text: as §3, §4

[2] = tested on: A. actinomycetemcomitans NCTC 9710; test: microbe, parasite or virus in culture; assay type: cell-based; conditions: for MBC / MIC: Aggregatibacter actinomycetemcomitans, NCTC9710
Text: as §3, §4

P. gingivalis = test: microbe, parasite or virus in culture; assay type: cell-based, Porphyromonas gingivalis; conditions: for MBC / MIC: Porphyromonas gingivalis
Text: as §3, §4

[3] = tested on: Ps. aeruginosa ATCC 17648; test: microbe, parasite or virus in culture; assay type: cell-based, Pseudomonas aeruginosa; conditions: for MBC / MIC: Pseudomonas aeruginosa, ATCC17648
Text: as §3, §4

E. coli HB101 = test: microbe, parasite or virus in culture; assay type: cell-based, Escherichia coli; conditions: for MBC / MIC: Escherichia coli, HB101
Text: as §3, §4

[4] = median of four strains (GS-5, GS-5 gtfBCD, AU 159, ATCC10449), 25% BHI, 48 h
[5] = median of two strains (W 50, 381)

## AKRHHGYKRKFH [Hsn5 12-mer]
trypsin
  degradation by trypsin: degraded
[1]
  degradation by saliva: degraded
S. mutans; median of four strains
  MBC (μM): 50.0 µM
S. mutans; [4]
  MIC: 25 µM
S. gordonii Challis
  MBC (μM): >100 µM
  MBC (μg/ml): >158 µg/mL
  MIC (μM): >100 µM
  MIC (μg/ml): >158 µg/mL
[2]; NCTC 9710
  MBC (μM): >100 µM
  MBC (μg/ml): >158 µg/mL
  MIC (μM): >100 µM
  MIC (μg/ml): >158 µg/mL
P. gingivalis
  MIC (μM): >100 µM
  MIC (μg/ml): >158 µg/mL
[3]; ATCC 17648
  MBC (μM): >100 µM
  MBC (μg/ml): >158 µg/mL
  MIC (μM): >100 µM
  MIC (μg/ml): >158 µg/mL
E. coli HB101
  MBC (μM): 100.0 µM
  MIC (μM): 100.0 µM

## CC(C)C[C@H](NC(=O)[C@H](CS)NC(=O)[C@H](CCCCN)NC(=O)[C@H](Cc1ccc(O)cc1)NC(=O)[C@H](CO)NC(=O)[C@H](CCCCN)NC(=O)[C@@H](N)CCCNC(=N)N)C(=O)N[C@@H](Cc1c[nH]cn1)C(=O)N[C@@H](CCCCN)C(=O)N[C@@H](CCCNC(=N)N)C(=O)N[C@@H](CS)C(=O)N[C@@H](CCCNC(=N)N)C(=O)O [MUC7 12-mer-L] (H-RKSYKCLHKRCR-OH; N-terminus and C-terminus assumed)
trypsin
  degradation by trypsin: degraded
[1]
  degradation by saliva: degraded
S. mutans; median of four strains
  MBC (μM): 12.5 µM (≈ 19.7 µg/mL)
S. mutans; [4]
  MIC: 12.5 µM
S. gordonii Challis
  MBC (μM): 100.0 µM (≈ 158 µg/mL)
  MIC (μM): 50.0 µM (≈ 78.9 µg/mL)
[2]; NCTC 9710
  MBC (μM): >100 µM
  MBC (μg/ml): >158 µg/mL
  MIC (μM): >100 µM
  MIC (μg/ml): >158 µg/mL
P. gingivalis
  MIC (μM): >100 µM
  MIC (μg/ml): >158 µg/mL
[3]; ATCC 17648
  MBC (μM): >100 µM
  MBC (μg/ml): >158 µg/mL
  MIC (μM): >100 µM
  MIC (μg/ml): >158 µg/mL
E. coli HB101
  MBC (μM): 25.0 µM (≈ 39.4 µg/mL)
  MIC (μM): 25.0 µM (≈ 39.4 µg/mL)

## CC(C)C[C@@H](NC(=O)[C@@H](CS)NC(=O)[C@@H](CCCCN)NC(=O)[C@@H](Cc1ccc(O)cc1)NC(=O)[C@@H](CO)NC(=O)[C@@H](CCCCN)NC(=O)[C@H](N)CCCNC(=N)N)C(=O)N[C@H](Cc1c[nH]cn1)C(=O)N[C@H](CCCCN)C(=O)N[C@H](CCCNC(=N)N)C(=O)N[C@H](CS)C(=O)N[C@H](CCCNC(=N)N)C(=O)O [MUC7 12-mer-D] (H-[dR][dK][dS][dY][dK][dC][dL][dH][dK][dR][dC][dR]-OH; N-terminus and C-terminus assumed)
trypsin
  degradation by trypsin: resistant to the degradation
[1]
  degradation by saliva: resistant to the degradation
S. mutans; median of four strains
  MBC (μM): 12.5 µM (≈ 19.7 µg/mL)
S. mutans; [4]
  MIC: 12.5 µM
S. gordonii Challis
  MBC (μM): 100.0 µM (≈ 158 µg/mL)
  MIC (μM): 50.0 µM (≈ 78.9 µg/mL)
[2]; NCTC 9710
  MBC (μM): >100 µM
  MBC (μg/ml): >158 µg/mL
  MIC (μM): >100 µM
  MIC (μg/ml): >158 µg/mL
P. gingivalis
  MBC (μM): 100.0 µM (≈ 158 µg/mL)
  MBC (μg/ml): 79.0 µg/mL (≈ 50.1 µM)
  MIC (μM): 50.0 µM (≈ 78.9 µg/mL)
[3]; ATCC 17648
  MBC (μM): >100 µM
  MBC (μg/ml): >158 µg/mL
  MIC (μM): 100.0 µM (≈ 158 µg/mL)
E. coli HB101
  MBC (μM): 12.5 µM (≈ 19.7 µg/mL)
  MIC (μM): 12.5 µM (≈ 19.7 µg/mL)

## GIGKFLHSAKKFGKAFVGEIMNS [Magainin-II]
trypsin; 0.5 h, 37° C., SDS-PAGE
  degradation by trypsin: degraded
[1]; unclarified saliva, 1 h, 37° C., SDS-PAGE
  degradation by saliva: degraded
S. mutans; median of four strains
  MBC (μM): 50.0 µM
  MIC: 61.7 µg/mL
S. mutans; [4]
  MIC: 25 µM
S. gordonii Challis
  MBC (μM): >50 µM
  MBC (μg/ml): >123 µg/mL
  MIC (μM): 50.0 µM
  MIC (μg/ml): 123.5 µg/mL
[2]
  MBC (μM): 50.0 µM
  MBC (μg/ml): 123.5 µg/mL
  MIC (μM): 50.0 µM
  MIC (μg/ml): 123.5 µg/mL
P. gingivalis; [5]
  MIC (μM): >100 µM
  MIC (μg/ml): >246.9 µg/mL
[3]
  MBC (μM): 100.0 µM
  MBC (μg/ml): 246.9 µg/mL
  MIC (μM): >100 µM
  MIC (μg/ml): >246.9 µg/mL
E. coli HB101
  MBC (μM): 12.5 µM
  MBC (μg/ml): 30.9 µg/mL
  MIC (μM): 12.5 µM
  MIC (μg/ml): 30.9 µg/mL

## [H]/N=C(\N/C(=N/[H])NCCCCCCNC(=N)NC(=N)Nc1ccc(Cl)cc1)Nc1ccc(Cl)cc1 [Chlorhexidine, Chlorhexidine digluconate]
S. mutans; Streptococcus mutans
  MBC: 2.5 µM and 1.2 µg/mL
  MIC: 1.2 µg/mL
S. mutans; Streptococcus mutans, ATCC10449, 48 h
  MIC: 2.5 µM
S. gordonii Challis; read-out: MBC
  MBC: 4 µM
S. gordonii Challis; read-out: MBC (μg/ml)
  MBC: 2 µg/mL
S. gordonii Challis; read-out: MIC
  MIC: 2.5 µM
S. gordonii Challis; read-out: MIC (μg/ml)
  MIC: 1.2 µg/mL
[2]; read-out: MBC
  MBC: 20 µM
[2]; read-out: MBC (μg/ml)
  MBC: 10.1 µg/mL
[2]; read-out: MIC
  MIC: 20 µM
[2]; read-out: MIC (μg/ml)
  MIC: 10.1 µg/mL
P. gingivalis; median of two strains (W 50, 381), read-out: MBC
  MBC: 2.5 µM
P. gingivalis; median of two strains (W 50, 381), read-out: MBC (μg/ml)
  MBC: 1.3 µg/mL
P. gingivalis; median of two strains (W 50, 381), read-out: MIC
  MIC: 2.5 µM
P. gingivalis; median of two strains (W 50, 381), read-out: MIC (μg/ml)
  MIC: 1.2 µg/mL
[3]; read-out: MBC
  MBC: 10 µM
[3]; read-out: MBC (μg/ml)
  MBC: 5.1 µg/mL
[3]; read-out: MIC
  MIC: 10 µM
[3]; read-out: MIC (μg/ml)
  MIC: 5.1 µg/mL
E. coli HB101; read-out: MBC
  MBC: 2.5 µM
E. coli HB101; read-out: MBC (μg/ml)
  MBC: 1.3 µg/mL
E. coli HB101; read-out: MIC
  MIC: 2.5 µM
E. coli HB101; read-out: MIC (μg/ml)
  MIC: 1.3 µg/mL
